Assay results taken from US5189018A, “Method for reduction of central nervous system (CNS) edema resulting from head and spinal cord trauma” (Wayne State University, priority 1991, dated 1993).
Non-standard residues stand in square brackets, D forms with d. Residues, ends and D or L forms follow the SMILES beside them. Met(O2) = CS(=O)(=O)CC[C@H](N)C(=O)O

Tests used:
[1] = tested on: blood brain barrier permeability; parameters: species or system rat (Wistar); conditions: rat, in vivo
Source text: (§1) Applicant has developed a reliable physiologic model of potentially reversible, controlled fixed and closed-head injury in the laboratory rat (Wistar, Harlan Sprague-Dawley, Inc. Indianapolis, Ind.) that mimics many of the features of moderate concussion in humans. The model permits long term examination of subsequent cerebrovascular pathophysiological sequelae in conscious, unrestrained animals.
A rat anesthetized with halothane was mounted in a prone position on the test board and the head was fixed in position by means of the bite plate 30 over which the upper incisors were engaged as shown in FIG. 1c. […]
Brain vascular volume (BVS) and permeability were determined simultaneously utilizing modified methods of Rapoport, as described below (18). […] Moreover, estimates of BVS determined with either tracer are in agreement with published values obtained at more conventional time-intervals, e.g., two to ten minutes, after intravenous injection with an error of less than 4%. […]
The experimental protocol for the measurement of blood-to-brain transfer of diffusion-limited substances such as sucrose involved surgical implantation of catheters, one in a femoral vein, the other in the opposite femoral artery, under halothane anesthesia. […] The behavior of the animal was carefully monitored. […]

[2] = tested on: intracranial pressure; parameters: species or system rat (Wistar); conditions: rat, in vivo
Source text: as §1
A rat anesthetized with halothane was mounted in a prone position on the test board and the head was fixed in position by means of the bite plate 30 over which the upper incisors were engaged as shown in FIG. 1c. The board angle of recline and the axis of pendulum rotation were adjustable to permit a flat or angled (3°-5° ) strike on the chosen head impact site. The optimum applied force/angle was selected from the nomogram. The pendulum was raised to the desired angle and released through a quick-release mechanism to fall into impact with the head. Forces developed by this means ranged from 60 to 85 pounds. […]
Intracranial pressures were determined in separate but identically treated animals. […] A Camino 431 miniature pressure sensor was inserted into the tubing and pressure was measured on Camino 420 Digital Pressure Monitor System. Intracranial pressure measurements were monitored from 5 minutes before and up to […] following head impaction. […]

[3] = Toxicity of subcutaneous doses in the rat model; assay type: in vivo; conditions: doses up to four times 27.2 ug (65-75 ug/kg), s.c.
[4] = modified peptide less susceptible to enzymatic degradation, versus ACTH4-10; cited from earlier work
[5] = tested on: cisplatin neuropathy; conditions: in vivo; cited from earlier work
[6] = tested on: dementias; alcoholic inebriation; conditions: human, in vivo; cited from earlier work

CS(=O)(=O)CC[C@H](N)C(=O)N[C@@H](CCC(=O)O)C(=O)N[C@@H](Cc1c[nH]cn1)C(=O)N[C@@H](Cc1ccccc1)C(=O)N[C@H](CCCCN)C(=O)N[C@@H](Cc1ccccc1)C(=O)O [Organon 2766, Met (O2) Glu-His-Phe-D-Lys-Phe] (H-[Met(O2)]EHF[dK]F-OH)
permeability of the blood-brain barrier at high dose [1]: dramatically increased | ICP in uninjured animals [2]: not different from control animals | lethality [3]: not lethal | half life in vivo [4]: longer half life | cytotoxic effect of cisplatin [5]: without adversely effecting | toxic effects [5]: No toxic effects were noted | toxicity and side effects in humans [6]: non-toxic and had no serious side effects
